In patent US7247621B2, “Antiviral phosphonate compounds and methods therefor” (Valeant Research & Development, priority 2002, dated 2007):

Tests used:
[1] = molecular target: HCV RNA dependent RNA polymerase (RdRp), NS5B (Hepatitis C virus genotype 1b, UniProt P26663); experiment: Incorporation of phosphonate ATP analogs into RNA product by HCV RdRp (gel, extension of [33P]GpC); type: biochemical; details: for extension of [33P]GpC by HCV RdRp (incorporation into RNA product): 1 mM nucleotide, 10 μM [33P]GpC, 10 μM 5′-AAAAAAAUGC-3′ template, 2.5 μM HCV RdRp, FIG. 8
Method: Among other nucleotide analogs (data not shown), two exemplary phosphonate analogs of ATP, 5′-deoxy-5′-phosphonate (5′d-ATP) and 5′-deoxy-5′-methylene phosphonate (5′d-CH2-ATP), were tested for inhibition and/or incorporation into an RNA product by the HCV RNA dependent RNA polymerase (RdRp). The incorporation reactions included 1 mM of the phosphonate analog or ATP, 10 μM of [^33P]GpC, 10 μM of 5′-AAAAAAAUGC-3′, and 2.5 μM of HCV RdRp in a buffer that contained 50 mM Hepes, pH 7.3, 10 mM DTT, and 5 mM MgCl2. The RNA products were resolved on a 25% polyacrylamide-7M urea-TBE gel. […] The incorporation of 5′d-CH2-ATP is less efficient than that of ATP by 10-fold. To look for further elongation after incorporation of ATP or 5′d-CH2-ATP, the same experiment was performed in the presence of additional UTP (1 mM).
Exemplary results of such tests are depicted in the autoradiograph of FIG. 8 showing RNA products from incorporations of ATP and phosphonate analogs of ATP by HCV RdRp. Each reaction contained 2.5 μM of RdRp, 10 μM of [^33P]GpC, 10 μM template, and the following nucleotides (1 mM): lane 1, none; lane 2, ATP; lane 3,5′-deoxy-5′-phosphonate ATP; lane 4,5′-deoxy-5′-methylene phosphonate ATP; lane 5, ATP and UTP; lane 6,5′-deoxy-5′-phosphonate ATP and UTP; lane 7,5′-deoxy-5′-methylene phosphonate ATP and UTP. The reaction products were resolved on a 25% polyacrylamide-7 M urea-TBE gel and the gel was scanned on a PhosporImager.

[2] = molecular target: E. coli RNA polymerase (Escherichia coli, UniProt P0A8T7+P0A8V2); details: Savochkina et al. Mol. Biol. (Mosk) 1989; cited from earlier work
E. coli RNA polymerase, sequence (P0A8T7 whole entry): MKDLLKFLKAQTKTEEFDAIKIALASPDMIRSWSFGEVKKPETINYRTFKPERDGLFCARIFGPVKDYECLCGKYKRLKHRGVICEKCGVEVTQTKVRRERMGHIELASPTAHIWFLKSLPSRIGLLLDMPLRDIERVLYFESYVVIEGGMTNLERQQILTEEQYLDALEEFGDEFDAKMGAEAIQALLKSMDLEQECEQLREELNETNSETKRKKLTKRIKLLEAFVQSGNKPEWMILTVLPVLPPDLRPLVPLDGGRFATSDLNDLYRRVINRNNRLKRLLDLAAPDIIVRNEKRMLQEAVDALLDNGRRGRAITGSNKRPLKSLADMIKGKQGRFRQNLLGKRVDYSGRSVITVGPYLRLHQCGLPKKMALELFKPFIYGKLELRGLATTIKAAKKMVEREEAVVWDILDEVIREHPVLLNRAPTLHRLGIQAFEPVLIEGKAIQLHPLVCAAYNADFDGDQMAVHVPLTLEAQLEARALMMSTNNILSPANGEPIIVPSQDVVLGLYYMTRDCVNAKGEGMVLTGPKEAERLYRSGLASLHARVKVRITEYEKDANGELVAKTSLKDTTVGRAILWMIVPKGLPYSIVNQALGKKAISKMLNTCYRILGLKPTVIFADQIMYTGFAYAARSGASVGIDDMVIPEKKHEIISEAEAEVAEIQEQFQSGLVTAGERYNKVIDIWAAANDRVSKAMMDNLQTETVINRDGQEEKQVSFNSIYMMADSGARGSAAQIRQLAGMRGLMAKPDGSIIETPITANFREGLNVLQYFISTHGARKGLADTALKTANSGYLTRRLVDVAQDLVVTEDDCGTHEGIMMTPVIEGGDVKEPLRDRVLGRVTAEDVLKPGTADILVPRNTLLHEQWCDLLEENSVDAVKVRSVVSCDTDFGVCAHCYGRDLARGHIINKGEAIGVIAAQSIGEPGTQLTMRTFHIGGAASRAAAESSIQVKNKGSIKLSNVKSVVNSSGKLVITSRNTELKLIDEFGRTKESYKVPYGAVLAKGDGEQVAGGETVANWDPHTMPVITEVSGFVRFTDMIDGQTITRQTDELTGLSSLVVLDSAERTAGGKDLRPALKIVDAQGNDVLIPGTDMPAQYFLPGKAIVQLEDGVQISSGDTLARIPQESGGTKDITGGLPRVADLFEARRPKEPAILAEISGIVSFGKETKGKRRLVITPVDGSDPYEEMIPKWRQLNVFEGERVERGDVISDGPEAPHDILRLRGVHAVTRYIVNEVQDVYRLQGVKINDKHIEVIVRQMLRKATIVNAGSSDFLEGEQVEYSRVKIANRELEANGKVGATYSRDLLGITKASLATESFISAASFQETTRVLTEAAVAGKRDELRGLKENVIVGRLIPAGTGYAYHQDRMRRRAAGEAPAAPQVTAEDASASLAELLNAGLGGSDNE
E. coli RNA polymerase, sequence (P0A8V2 whole entry): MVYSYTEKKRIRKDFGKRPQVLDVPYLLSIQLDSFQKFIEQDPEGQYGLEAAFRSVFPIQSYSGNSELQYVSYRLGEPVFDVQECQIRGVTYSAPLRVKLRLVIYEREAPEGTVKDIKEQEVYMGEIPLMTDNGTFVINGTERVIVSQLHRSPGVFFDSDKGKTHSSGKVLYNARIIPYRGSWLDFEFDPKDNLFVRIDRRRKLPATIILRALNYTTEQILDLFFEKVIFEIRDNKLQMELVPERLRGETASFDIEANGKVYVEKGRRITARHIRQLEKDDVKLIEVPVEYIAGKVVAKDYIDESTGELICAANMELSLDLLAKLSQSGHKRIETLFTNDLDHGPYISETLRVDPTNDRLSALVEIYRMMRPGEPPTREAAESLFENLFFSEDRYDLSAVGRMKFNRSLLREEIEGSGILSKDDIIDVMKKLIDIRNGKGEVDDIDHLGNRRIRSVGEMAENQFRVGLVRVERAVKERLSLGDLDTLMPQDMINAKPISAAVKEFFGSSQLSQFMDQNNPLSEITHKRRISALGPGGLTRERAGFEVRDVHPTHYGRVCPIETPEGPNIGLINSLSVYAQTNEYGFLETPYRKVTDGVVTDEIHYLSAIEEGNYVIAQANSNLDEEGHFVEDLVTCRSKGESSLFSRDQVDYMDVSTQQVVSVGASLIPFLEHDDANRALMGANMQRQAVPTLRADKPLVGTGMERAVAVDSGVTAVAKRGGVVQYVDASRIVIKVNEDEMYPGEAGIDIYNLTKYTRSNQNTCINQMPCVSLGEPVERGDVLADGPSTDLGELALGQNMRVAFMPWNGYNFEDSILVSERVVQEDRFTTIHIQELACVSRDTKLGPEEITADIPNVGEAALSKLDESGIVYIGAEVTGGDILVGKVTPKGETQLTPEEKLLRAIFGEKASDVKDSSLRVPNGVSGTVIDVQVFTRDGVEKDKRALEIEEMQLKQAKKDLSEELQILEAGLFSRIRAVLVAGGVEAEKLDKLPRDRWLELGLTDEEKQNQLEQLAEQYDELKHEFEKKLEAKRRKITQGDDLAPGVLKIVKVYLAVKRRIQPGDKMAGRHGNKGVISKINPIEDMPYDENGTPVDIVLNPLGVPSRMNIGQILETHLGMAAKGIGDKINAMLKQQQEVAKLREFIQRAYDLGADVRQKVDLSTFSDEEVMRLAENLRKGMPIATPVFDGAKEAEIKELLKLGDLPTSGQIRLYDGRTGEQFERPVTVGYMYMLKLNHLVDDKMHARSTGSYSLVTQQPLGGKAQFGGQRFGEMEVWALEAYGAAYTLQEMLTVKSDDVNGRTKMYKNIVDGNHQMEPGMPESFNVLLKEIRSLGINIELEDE
E. coli RNA polymerase, sequence (P0A7Z4 whole entry, further chain): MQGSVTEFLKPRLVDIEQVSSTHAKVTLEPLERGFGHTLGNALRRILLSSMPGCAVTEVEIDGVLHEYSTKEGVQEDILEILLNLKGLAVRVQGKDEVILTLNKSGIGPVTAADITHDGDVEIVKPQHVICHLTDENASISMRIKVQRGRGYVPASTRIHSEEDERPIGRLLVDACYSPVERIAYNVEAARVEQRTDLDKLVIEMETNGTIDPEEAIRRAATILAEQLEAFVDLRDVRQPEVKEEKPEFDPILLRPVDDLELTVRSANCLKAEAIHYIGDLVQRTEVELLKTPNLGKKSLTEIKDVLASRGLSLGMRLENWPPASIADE
E. coli RNA polymerase, sequence (P0A800 whole entry, further chain): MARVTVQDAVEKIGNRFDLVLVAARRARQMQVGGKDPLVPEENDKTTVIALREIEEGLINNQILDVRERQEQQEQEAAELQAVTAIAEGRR

HCV RNA dependent RNA polymerase (RdRp), NS5B, sequence (P26663 2420-3010): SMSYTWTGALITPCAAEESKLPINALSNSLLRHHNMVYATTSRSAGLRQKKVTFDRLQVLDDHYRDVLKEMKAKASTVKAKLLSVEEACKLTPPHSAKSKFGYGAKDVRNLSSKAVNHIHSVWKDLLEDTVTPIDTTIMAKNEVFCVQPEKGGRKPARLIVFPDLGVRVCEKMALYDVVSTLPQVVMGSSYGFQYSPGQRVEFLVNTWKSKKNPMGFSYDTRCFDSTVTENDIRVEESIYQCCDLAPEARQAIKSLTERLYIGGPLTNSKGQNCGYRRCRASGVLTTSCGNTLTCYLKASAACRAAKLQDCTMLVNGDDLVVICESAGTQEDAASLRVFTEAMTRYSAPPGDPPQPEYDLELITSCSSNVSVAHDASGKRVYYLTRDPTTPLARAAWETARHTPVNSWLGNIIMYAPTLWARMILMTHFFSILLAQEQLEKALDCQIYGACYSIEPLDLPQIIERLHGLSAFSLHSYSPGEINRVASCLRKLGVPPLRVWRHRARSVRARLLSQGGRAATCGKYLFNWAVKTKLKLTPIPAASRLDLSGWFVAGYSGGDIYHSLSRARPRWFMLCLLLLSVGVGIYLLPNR

In the case of `Nc1ncnc2c1ncn2[C@@H]1O[C@H](COP(=O)(O)OP(=O)(O)OP(=O)(O)O)[C@@H](O)[C@H]1O` [ATP], the “extension of [33P]GpC by HCV RdRp (incorporation into RNA product)” value [1] is reported as “extension of [^33P]GpC by HCV RdRp was observed” and the “further elongation by UTP after incorporation” value ([1]; same experiment with additional UTP (1 mM)) is reported as “Elongation products by UTP were seen”.
In the case of `Nc1ncnc2c1ncn2[C@@H]1O[C@H](CP(=O)(O)OP(=O)(O)OP(=O)(O)O)[C@@H](O)[C@H]1O` [5′d-ATP], the “extension of [33P]GpC by HCV RdRp (incorporation into RNA product)” value [1] is reported as “no extension”.
For `O=c1ccn([C@@H]2O[C@@H](CP(=O)(O)OP(=O)(O)OP(=O)(O)O)[C@@H](O)[C@H]2O)c(=O)[nH]1` [Phosphonate (5-deoxy) UTP], the “effect on RNA synthesis by E. coli RNA polymerase” value [2] is listed as “pseudoterminator of RNA synthesis”.
